This is an account of results in the NIST ThermoML archive (doi:10.1021/acs.jced.7b00321).

The conditions of this series: 101 kPa, Liquid; for viscosity: Capillary tube (Ostwald / Ubbelohde) method; for mass density: Vibrating tube method.

± gives the expanded uncertainty stated by the source.

The term viscosity denotes the resistance of a fluid to flow. In general, mass density refers to mass per unit of volume. Consider `CC(O)CN` (stereo not given) [1-amino-2-propanol], for which the viscosity (293.15 K) is recorded as 30.44 ± 0.65 mPa·s, the viscosity (303.15 K) worked out at 17.87 ± 0.39 mPa·s, the viscosity (313.15 K) is 10.79 ± 0.23 mPa·s and the viscosity (323.15 K) is 6.99 ± 0.15 mPa·s. Moreover, the mass density was 960.81 ± 1 kg/m3 (293.15 K), 952.25 ± 1 kg/m3 (303.15 K), 944.43 ± 1 kg/m3 (313.15 K) and 936.21 ± 1 kg/m3 (323.15 K).

For the molecule `NCCCO` [3-amino-1-propanol], the viscosity was found to be 40.26 ± 0.86 mPa·s (293.15 K), 24.03 ± 0.52 mPa·s (303.15 K), 15.08 ± 0.32 mPa·s (313.15 K) and 10.01 ± 0.22 mPa·s (323.15 K). Further, the mass density runs as follows: (293.15 K) 987.5 ± 1 kg/m3; (303.15 K) 979.45 ± 1 kg/m3; (313.15 K) 971.67 ± 1 kg/m3; (323.15 K) 963.36 ± 1 kg/m3.

For the molecule `NCCNCCO` [N-(2-aminoethyl)ethanolamine], the viscosity was found to be 136.19 ± 3.6 mPa·s (293.15 K), 71.64 ± 1.6 mPa·s (303.15 K), 39.59 ± 0.86 mPa·s (313.15 K) and 23.41 ± 0.52 mPa·s (323.15 K). In addition, the mass density is recorded as 1029.14 ± 1 kg/m3 (293.15 K), 1021.45 ± 1 kg/m3 (303.15 K), 1014.18 ± 1 kg/m3 (313.15 K) and 1006.54 ± 1 kg/m3 (323.15 K).

Consider `NCCNCCN` [di(2-aminoethyl)amine], for which the viscosity is reported as 6.99 ± 0.15 mPa·s (293.15 K), 4.79 ± 0.1 mPa·s (303.15 K), 3.45 ± 0.07 mPa·s (313.15 K) and 2.6 ± 0.06 mPa·s (323.15 K). Also, the mass density (293.15 K) was 951.16 ± 1 kg/m3, the mass density (303.15 K) is given as 942.19 ± 1 kg/m3, the mass density (313.15 K) amounted to 933.93 ± 1 kg/m3 and the mass density (323.15 K) turned out to be 925.42 ± 1 kg/m3.

Turning to `CCO` [ethanol], the viscosity (293.15 K) is recorded as 1.17 ± 0.02 mPa·s, the viscosity (303.15 K) is 0.97 ± 0.02 mPa·s, the viscosity (313.15 K) is reported as 0.81 ± 0.02 mPa·s and the viscosity (323.15 K) is 0.69 ± 0.02 mPa·s. The mass density turned out to be 788.88 ± 1 kg/m3 (293.15 K), 781.69 ± 1 kg/m3 (303.15 K), 772.3 ± 1 kg/m3 (313.15 K) and 765.29 ± 1 kg/m3 (323.15 K).
